The text below walks through data of US20230102554A1 (GB002, INC., priority 2019, published 2023).

Each structure is given as a SMILES string.

The target of experiment [1] is T1, Human PDGFRα, cytoplasmic domain (GST-PDGFRα) (Homo sapiens, UniProt P16234).
T1 construct: made in house
In words: Human PDGFRα biochemical inhibition assay (off-chip Mobility Shift Assay).

In experiment [2] the target is T2, Human PDGFRβ, cytoplasmic domain (GST-PDGFRβ) (Homo sapiens, UniProt P09619).
T2 construct: made in house
Nature of the experiment: Human PDGFRβ biochemical inhibition assay (off-chip Mobility Shift Assay). In outline: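 GST-tagged cytoplasmic domain (aa 557-1106) from baculovirus was incubated 1 h at room temperature with compound, CSKtide, ATP at Km and Mg²⁺ in HEPES buffer, pH 7.5. Phosphorylated and unphosphorylated peptide were separated by off-chip mobility shift, and the product ratio P/(P+S) gave percent inhibition.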

T1 sequence (P16234 550-1089 T674I): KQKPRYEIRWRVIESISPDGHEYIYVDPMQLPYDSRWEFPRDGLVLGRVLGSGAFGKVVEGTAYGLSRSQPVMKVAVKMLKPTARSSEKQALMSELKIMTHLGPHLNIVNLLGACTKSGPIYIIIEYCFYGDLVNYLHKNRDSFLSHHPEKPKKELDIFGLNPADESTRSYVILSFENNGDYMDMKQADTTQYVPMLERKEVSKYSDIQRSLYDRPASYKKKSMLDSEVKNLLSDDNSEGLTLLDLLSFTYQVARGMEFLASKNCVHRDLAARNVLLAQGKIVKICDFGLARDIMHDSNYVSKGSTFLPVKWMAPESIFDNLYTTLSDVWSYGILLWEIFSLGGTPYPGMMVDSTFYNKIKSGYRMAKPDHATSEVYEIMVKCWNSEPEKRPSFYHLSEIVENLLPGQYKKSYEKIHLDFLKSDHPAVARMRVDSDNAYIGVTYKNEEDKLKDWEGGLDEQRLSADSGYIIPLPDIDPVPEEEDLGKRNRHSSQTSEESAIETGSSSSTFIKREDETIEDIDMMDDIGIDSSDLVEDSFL
T2 sequence (P09619 with tags, fused parts or gaps): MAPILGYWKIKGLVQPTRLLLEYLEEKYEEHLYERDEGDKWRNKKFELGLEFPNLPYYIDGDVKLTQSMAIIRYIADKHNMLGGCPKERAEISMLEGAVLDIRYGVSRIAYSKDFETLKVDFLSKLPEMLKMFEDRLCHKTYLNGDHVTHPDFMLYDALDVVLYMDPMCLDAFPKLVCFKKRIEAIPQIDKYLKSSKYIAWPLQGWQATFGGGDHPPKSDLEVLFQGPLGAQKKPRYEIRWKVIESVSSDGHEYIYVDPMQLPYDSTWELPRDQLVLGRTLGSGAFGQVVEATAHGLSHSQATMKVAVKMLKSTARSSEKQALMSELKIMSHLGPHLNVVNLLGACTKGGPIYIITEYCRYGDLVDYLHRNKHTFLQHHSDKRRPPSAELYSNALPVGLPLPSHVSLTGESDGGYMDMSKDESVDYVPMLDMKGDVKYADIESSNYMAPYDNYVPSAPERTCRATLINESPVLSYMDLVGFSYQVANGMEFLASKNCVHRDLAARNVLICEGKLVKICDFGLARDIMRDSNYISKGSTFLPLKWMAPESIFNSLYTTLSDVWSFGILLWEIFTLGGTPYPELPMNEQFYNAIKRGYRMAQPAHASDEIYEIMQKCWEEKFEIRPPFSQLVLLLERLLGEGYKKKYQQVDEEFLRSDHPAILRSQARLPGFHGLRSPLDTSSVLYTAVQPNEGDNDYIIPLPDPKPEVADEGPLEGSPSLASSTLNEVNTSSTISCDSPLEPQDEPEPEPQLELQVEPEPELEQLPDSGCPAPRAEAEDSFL

On to `CCn1cc2ncc(N[C@@H](C)c3cc(NC(=O)Cc4cc(C)c(F)cn4)ccc3C)nc2n1` [Compound 687, (S)-N-(3-(1-((2-ethyl-2H-pyrazolo[3,4-b]pyrazin-6-yl)amino)ethyl)-4-methylphenyl)-2-(5-fluoro-4-methylpyridin-2-yl)acetamide], for which the IC50 in experiment [1] and in experiment [2] was under 300 nM each time.
Consider `C[C@H](Nc1cnc2cnn(C)c2n1)c1cccc(NC(=O)[C@H]2C[C@H]2C(F)(F)F)c1` [Compound 53, (1S,2R)-N-(3-((S)-1-((1 methyl-1H-pyrazolo[3,4-d]pyrazin-6-yl)amino)ethyl)phenyl)-2-(trifluoromethyl)cyclopropane-1-carboxamide], for which the half-maximal inhibitory concentration (IC50) in experiment [1] and in experiment [2] was at least 1000 nM throughout.
As for `C[C@H](Nc1cnc2cnn(C)c2n1)c1cccc(NC(=O)c2ccc(C#N)nc2)c1` [Compound 117, (S)-6-cyano-N-(3-(1-((1-methyl-1H-pyrazolo[3,4-b]pyrazin-6-yl)amino)ethyl)phenyl) nicotinamide], the results for the IC50 in experiment [1] and in experiment [2] were under 300 nM and at least 1000 nM, respectively.
Turning to `C[C@H](Nc1cnc2cnn(C)c2n1)c1cccc(NC(=O)c2cncc(C3CC3)c2)c1` [Compound 105, (S)-5-cyclopropyl-N-(3-(1-((1-methyl-1H-pyrazolo[3,4-b]pyrazin-6-yl)amino)ethyl)phenyl)nicotinamide], the IC50 in experiment [1] and in experiment [2] was under 300 nM each time.
Take `CCn1cc2ncc(N[C@@H](C)c3cccc(NC(=O)Cc4cccc(F)c4)c3)nc2n1` [Compound 625, (S)-N-(3-(1-((2-ethyl-2H-pyrazolo[3,4-b]pyrazin-6-yl)amino)ethyl)phenyl)-2-(3-fluorophenyl)acetamide]: the IC50 in experiment [1] is under 300 nM; in experiment [2], 300 to 1000 nM.
The matching figures for `CCOc1ccc(C(=O)Nc2cccc([C@H](C)Nc3cnc4cnn(C)c4n3)c2)cc1C` [Compound 196, (S)-4-ethoxy-3-methyl-N-(3-(1-((1-methyl-1H-pyrazolo[3,4-b]pyrazin-6-yl)amino)ethyl)phenyl)benzamide]: under 300 nM and under 300 nM.
`CCn1cc2ncc(N[C@@H](C)c3cccc(NC(=O)c4ccc(N5CCOCC5)c(F)c4)c3)nc2n1` [Compound 366, (S)-N-(3-(1-((2-ethyl-2H-pyrazolo[3,4-b]pyrazin-6-yl)amino)ethyl)phenyl)-3-fluoro-4-morpholinobenzamide]: the IC50 in experiment [1] and in experiment [2] was under 300 nM each time.
Take `CCn1cc2ncc(N[C@@H](C)c3cccc(NC(=O)c4ccc(C)o4)c3)nc2n1` [Compound 369, (S)-N-(3-(1-((2-ethyl-2H-pyrazolo[3,4-b]pyrazin-6-yl)amino)ethyl)phenyl)-5-methylfuran-2-carboxamide]: the IC50 in experiment [1] and in experiment [2] was at least 1000 nM in each case.
Consider `C[C@H](Nc1cnc2cnn(C)c2n1)c1cccc(NC(=O)c2cncc(C(C)(C)F)c2)c1` [Compound 108, (S)-5-(2-fluoropropan-2-yl)-N-(3-(1-((1-methyl-1H-pyrazolo[3,4-b]pyrazin-6-yl)amino)ethyl)phenyl) nicotinamide], for which the IC50 in experiment [1] and in experiment [2] was under 300 nM in each case.
Take `Cc1c[nH]c2ncc(N[C@@H](C)c3cccc(NC(=O)c4cnn(C(F)F)c4)c3)nc12` [Compound 561, (S)-1-(difluoromethyl)-N-(3-(1-((7-methyl-5H-pyrrolo[2,3-b]pyrazin-2-yl)amino)ethyl)phenyl)-1H-pyrazole-4-carboxamide]: the IC50 in experiment [1] and in experiment [2] was under 300 nM throughout.
Regarding `CCn1cc2ncc(N[C@@H](C)c3cccc(NC(=O)c4cnc(C5CC5)c(C)c4)c3)nc2n1` [Compound 321, (S)-6-cyclopropyl-N-(3-(1-((2-ethyl-2H-pyrazolo[3,4-b]pyrazin-6-yl)amino)ethyl)phenyl)-5-methylnicotinamide], the IC50 in experiment [1] and in experiment [2] was under 300 nM in each case.
For `Cc1cncc(C(=O)Nc2cccc([C@H](C)Nc3cnc4ccsc4n3)c2)c1` [Compound 607], the IC50 in experiment [1] and in experiment [2] was under 300 nM in each case.
With `CCn1cc2ncc(N[C@@H](C)c3cccc(NC(=O)c4cnc5c(c4)CCCO5)c3)nc2n1` [Compound 56, (S)-N-(3-(1-((2-ethyl-2H-pyrazolo[3,4-b]pyrazin-6-yl)amino)ethyl)phenyl)-3,4-dihydro-2H-pyrano[2,3-b] pyridine-6-carboxamide], the IC50 in experiment [1] and in experiment [2] was under 300 nM in each case.
Regarding `CCn1cc2ncc(N[C@@H](C)c3cccc(NC(=O)Cc4ccncc4)c3)nc2n1` [Compound 644, (S)-N-(3-(1-((2-ethyl-2H-pyrazolo[3,4-b]pyrazin-6-yl)amino)ethyl)phenyl)-2-(pyridin-4-yl)acetamide], the IC50 in experiment [1] and in experiment [2] was at least 1000 nM each time.
Consider `CCNc1ncc(C(=O)Nc2cccc([C@H](C)Nc3cnc4cn(CC)nc4n3)c2)cc1C` [Compound 333, (S)-N-(3-(1-((2-ethyl-2H-pyrazolo[3,4-b]pyrazin-6-yl)amino)ethyl)phenyl)-6-(ethylamino)-5-methylnicotinamide], for which the IC50 is under 300 nM in experiment [1] and 300 to 1000 nM in experiment [2].
Turning to `CCc1ccc(CC(=O)Nc2cccc([C@H](C)Nc3cnc4cn(CC)nc4n3)c2)nc1` [Compound 712, (S)-N-(3-(1-((2-ethyl-2H-pyrazolo[3,4-b]pyrazin-6-yl)amino)ethyl)phenyl)-2-(5-ethylpyridin-2-yl)acetamide], the results for the IC50 in experiment [1] and in experiment [2] were under 300 nM and at least 1000 nM, respectively.
Turning to `CCn1cc2ncc(N[C@@H](C)c3cccc(NC(=O)c4cnc(C(C)C)s4)c3)nc2n1` [Compound 349, (S)-N-(3-(1-((2-ethyl-2H-pyrazolo[3,4-b]pyrazin-6-yl)amino)ethyl)phenyl)-2-isopropylthiazole-5-carboxamide], the half-maximal inhibitory concentration (IC50) in experiment [1] and in experiment [2] was under 300 nM throughout.
Turning to `CCn1cc2ncc(N[C@@H](C)c3cc(NC(=O)c4cnc5c(c4)CCCO5)ccc3F)nc2n1` [Compound 59, (S)-N-(3-(1-((2-ethyl-2H-pyrazolo[3,4-b]pyrazin-6-yl)amino)ethyl)-4-fluorophenyl)-3,4-dihydro-2H-pyrano[2,3-b] pyridine-6-carboxamide], the concentration for half-maximal inhibition (IC50) in experiment [1] and in experiment [2] was under 300 nM each time.
Turning to `C[C@H](Nc1cnc2cn(CC3CCC3)nc2n1)c1cc(NC(=O)c2cnc(C(F)(F)F)s2)ccc1F` [Compound 390, (S)-N-(3-(1-((2-(cyclobutylmethyl)-2H-pyrazolo[3,4-b]pyrazin-6-yl)amino)ethyl)-4-fluorophenyl)-2-(trifluoromethyl)thiazole-5-carboxamide], the IC50 in experiment [1] and in experiment [2] was under 300 nM in each case.
As for `C[C@H](Nc1cnc2cnn(C)c2n1)c1cccc(NC(=O)c2cncc(C3COC3)c2)c1` [Compound 114, (S)-N-(3-(1-((1-methyl-1H-pyrazolo[3,4-b]pyrazin-6-yl)amino)ethyl)phenyl)-5-(oxetan-3-yl)nicotinamide], the IC50 in experiment [1] and in experiment [2] was under 300 nM each time.
Consider `Cc1cncc(C(=O)Nc2cccc([C@H](C)Nc3cnc4[nH]cc(-c5cnn(C)c5)c4n3)c2)c1` [Compound 563, (S)-5-methyl-N-(3-(1-((7-(1-methyl-H-pyrazol-4-yl)-5H-pyrrolo[2,3-b]pyrazin-2-yl)amino)ethyl)phenyl) nicotinamide], for which the concentration for half-maximal inhibition (IC50) in experiment [1] and in experiment [2] was under 300 nM throughout.

Usually IC50 stands for the concentration needed to halve the response being measured.
